These results are taken from patent publication US20080188659A1, “Method for Preparing Halogenated Amines” (Wyeth, priority 2007, published 2008).

The target in one experiment is T1, human 11b-HSD1 (Homo sapiens, UniProt P28845).
T1 construct: expressed in transfected cells
The experiment in a line: cell-based assay, stable CHO cell line expressing human 11b-HSD1, cortisol measured with DiscoverX HitHunter Cortisol Assay. The settings on record: CHO cells expressing human 11b-HSD1; serum-free media; 500 nM cortisone, 120 minutes; read-out: Human 1C50. On the procedure: Compounds described herein can be tested in a cell-based assay using a stable CHO cell line expressing human 11b-HSD1. Cells are plated at 20,000 cells/well in 96 well plates and incubated overnight (12-16 hrs) at 37° C./5% CO2. Cells are treated with different concentration of compound in 90 microliter serum-free media and incubated for 30 minutes at 37° C./5% CO2. 10 ul of 5 micromolar cortisone (final concentration 500 nM) is then added to the cells and the plate is incubated at 37° C./5% CO2 for 120 minutes. 15 microliter of media is withdrawn and amount of cortisol in the media is measured using the DiscoverX HitHunter Cortisol Assay (DiscoverX corp, CA).

The target in a further experiment is T2, mouse 11b-HSD1 (Mus musculus, UniProt P50172).
T2 construct: expressed in transfected cells
The experiment in a line: cell-based assay, stable CHO cell line expressing mouse 11b-HSD1, cortisol measured with DiscoverX HitHunter Cortisol Assay. The settings on record: CHO cells expressing mouse 11b-HSD1, 500 nM cortisone, 120 minutes. On the procedure: To determine the potency of compounds against mouse 11b-HSD1, a stable CHO cell line expressing mouse 11b-HSD1 is used. Cells are plated at 20,000 cells/well in 96 well plates and incubated overnight (12-16 hrs) at 37° C./5% CO2. […] 10 ul of 5 micromolar cortisone (final concentration 500 nM) is then added to the cells and the plate is incubated at 37° C./5% CO2 for 120 minutes. 15 microliter of media is withdrawn and amount of cortisol in the media is measured using the DiscoverX HitHunter Cortisol Assay (DiscoverX corp, CA).

The mark [1] stands for this setting: media containing 10% delipidized human serum, read-out: Mouse + Serum 1C50.
[2] abbreviates: serum-free media, read-out: Mouse 1C50.

SMILES strings stand for the structures. Where two headings read alike, the source gives them in different places. Where only a bound is given, the exact number is not on record here.

T2 sequence (P50172 whole entry): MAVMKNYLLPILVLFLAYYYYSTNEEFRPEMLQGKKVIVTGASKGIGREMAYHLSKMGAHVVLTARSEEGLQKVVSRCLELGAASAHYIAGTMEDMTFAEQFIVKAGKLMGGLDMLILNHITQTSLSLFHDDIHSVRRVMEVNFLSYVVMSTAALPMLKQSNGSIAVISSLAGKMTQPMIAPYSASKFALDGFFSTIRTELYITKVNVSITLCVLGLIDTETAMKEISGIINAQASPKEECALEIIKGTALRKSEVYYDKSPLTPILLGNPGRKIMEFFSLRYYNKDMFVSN
T1 sequence (P28845 whole entry): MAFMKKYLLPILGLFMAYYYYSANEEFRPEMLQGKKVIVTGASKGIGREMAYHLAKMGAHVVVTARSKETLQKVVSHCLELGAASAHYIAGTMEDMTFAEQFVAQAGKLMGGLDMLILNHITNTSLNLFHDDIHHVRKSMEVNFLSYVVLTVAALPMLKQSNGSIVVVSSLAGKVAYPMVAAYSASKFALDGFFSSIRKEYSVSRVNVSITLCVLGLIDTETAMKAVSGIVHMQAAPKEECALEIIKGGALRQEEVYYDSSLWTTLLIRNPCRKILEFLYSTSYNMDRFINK

Regarding `NC(c1ccc(C(=O)N2CCCCC2)cc1)(C(F)(F)F)C(F)(F)F` [Example 9, [4-(1-Amino-2,2,2-trifluoro-1-trifluoromethyl-ethyl)-phenyl]-piperidin-1-yl-methanone], the values for the IC50 at human 11b-HSD1, at mouse 11b-HSD1 (setting [1]) and on mouse 11b-HSD1 (setting [2]) were > 10 µM, 8.38 µM and > 10 µM, respectively.

Regarding `COc1ccc(N(C(=O)OC(C)(C)C)S(=O)(=O)c2ccc(C(N)(C(F)(F)F)C(F)(F)F)cc2)cc1` [Example 10, 4-(1-Amino-2,2,2-trifluoro-1-trifluoromethyl-ethyl)-N-(tert-butoxycarbonyl)-N-(4-methoxy-phenyl)-benzenesulfonamide], the IC50 at human 11b-HSD1, on mouse 11b-HSD1 (setting [1]) and at mouse 11b-HSD1 (setting [2]) was > 10 µM in each case.

On to `NC(c1cccc(C(=O)N2CCCCC2)c1)(C(F)(F)F)C(F)(F)F` [Example 7, [3-(1-Amino-2,2,2-trifluoro-1-trifluoromethyl-ethyl)-phenyl]-piperidin-1-yl-methanone], for which the IC50 is 2.38 µM on human 11b-HSD1, 2.69 µM at mouse 11b-HSD1 (setting [1]) and > 10 µM on mouse 11b-HSD1 (setting [2]).

As to `NC(c1cccc(S(=O)(=O)N2CCCCC2)c1)(C(F)(F)F)C(F)(F)F` [Example 1, 2,2,2-Trifluoro-1-[3-(piperidine-1-sulfonyl)-phenyl]-1-trifluoromethyl-ethylamine], the IC50 at human 11b-HSD1 was > 10 µM; at mouse 11b-HSD1 (setting [1]) it was 3.32 µM; at mouse 11b-HSD1 (setting [2]), > 10 µM.

Consider `CC(C)(C)OC(=O)N(C1CCCCC1)S(=O)(=O)c1cccc(C(N)(C(F)(F)F)C(F)(F)F)c1` [Example 5, 3-(1-Amino-2,2,2-trifluoro-1-trifluoromethyl-ethyl)-N-(tert-butoxycarbonyl)-N-cyclohexyl-benzenesulfonamide], for which the IC50 at human 11b-HSD1, on mouse 11b-HSD1 (setting [1]) and on mouse 11b-HSD1 (setting [2]) was > 10 µM in each case.

In the case of `C[C@@H]1CN(c2ccc(C(N)(C(F)(F)F)C(F)(F)F)nc2)CCN1S(=O)(=O)c1cccc(C(C)(O)C(F)(F)F)c1` (stereo partly drawn) [Example 14, 2-(3-{[(2R)-4-{6-[1-amino-2,2,2-trifluoro-1-(trifluoromethyl)ethyl]pyridin-3-yl}-2-methylpiperazin-1-yl]sulfonyl}phenyl)-1,1,1-trifluoropropan-2-ol], the results for the IC50 on human 11b-HSD1 and at mouse 11b-HSD1 (setting [2]) were < 0.01 µM and 0.16 µM, respectively.

As for `CCN(CC)S(=O)(=O)c1ccc(C(N)(C(F)(F)F)C(F)(F)F)cc1` [Example 13, 4-(1-Amino-2,2,2-trifluoro-1-trifluoromethyl-ethyl)-N,N-diethyl-benzenesulfonamide], the IC50 on human 11b-HSD1 is 0.565 µM; at mouse 11b-HSD1 (setting [1]), 0.645 µM; on mouse 11b-HSD1 (setting [2]), 0.225 µM.

On to `NC(c1ccc(S(=O)(=O)N2CCCCC2)cc1)(C(F)(F)F)C(F)(F)F` [Example 2, 2,2,2-Trifluoro-1-[4-(piperidine-1-sulfonyl)-phenyl]-1-trifluoromethyl-ethylamine], for which the IC50 was determined as 0.428 µM at human 11b-HSD1, 0.731 µM at mouse 11b-HSD1 (setting [1]) and 0.613 µM at mouse 11b-HSD1 (setting [2]).

Take `CCN(CC)S(=O)(=O)c1cccc(C(N)(C(F)(F)F)C(F)(F)F)c1` [Example 4, 3-(1-Amino-2,2,2-trifluoro-1-trifluoromethyl-ethyl)-N,N-diethyl-benzenesulfonamide]: the IC50 on human 11b-HSD1, at mouse 11b-HSD1 (setting [1]) and at mouse 11b-HSD1 (setting [2]) was > 10 µM each time.

As for `CCN(CC)C(=O)c1ccc(C(N)(C(F)(F)F)C(F)(F)F)cc1` [Example 12, 4-(1-Amino-2,2,2-trifluoro-1-trifluoromethyl-ethyl)-N,N-diethyl-benzamide], the IC50 on mouse 11b-HSD1 (setting [1]) is 0.165 µM.

In the case of `CC(C)(C)OC(=O)N(Cc1ccccc1)S(=O)(=O)c1cccc(C(N)(C(F)(F)F)C(F)(F)F)c1` [Example 6, 3-(1-Amino-2,2,2-trifluoro-1-trifluoromethyl-ethyl)-N-benzyl-N-(tert-butoxycarbonyl)-benzenesulfonamide], the IC50 on human 11b-HSD1, at mouse 11b-HSD1 (setting [1]) and at mouse 11b-HSD1 (setting [2]) was > 10 µM each time.

`C[C@@H]1CN(c2ccc(C(N)(C(F)(F)F)C(F)(F)F)cc2C(F)(F)F)CCN1S(=O)(=O)c1cccc(C(C)(O)C(F)(F)F)c1` (stereo partly drawn) [Example 15, 2-(3-{[(2R)-4-{4-[1-amino-2,2,2-trifluoro-1-(trifluoromethyl)ethyl]-2-(trifluoromethyl)phenyl}-2-methylpiperazin-1-yl]sulfonyl}phenyl)-1,1,1-trifluoropropan-2-ol]: the IC50 stood at 0.08 µM at human 11b-HSD1 and 0.2 µM on mouse 11b-HSD1 (setting [2]).

Regarding `CCN(CC)C(=O)c1cccc(C(N)(C(F)(F)F)C(F)(F)F)c1` [Example 11, 3-(1-Amino-2,2,2-trifluoro-1-trifluoromethyl-ethyl)-N,N-diethyl-benzamide], the IC50 on mouse 11b-HSD1 (setting [1]) stood at 0.291 µM.

Turning to `C[C@@H]1CN(c2ccc(C(N)(C(F)(F)F)C(F)(F)F)cc2C(F)(F)F)CCN1S(=O)(=O)c1ccc(C(C)(O)C(F)(F)F)cc1` (stereo partly drawn) [Example 16, 2-{4-([(2R)-4-[4-[1-amino-2,2,2-trifluoro-1-(trifluoromethyl)ethyl]-2-(trifluoromethyl)phenyl]-2-methylpiperazin-1-yl}sulfonyl)phenyl]-1,1,1-trifluoropropan-2-ol], the IC50 at human 11b-HSD1 is 0.09 µM; on mouse 11b-HSD1 (setting [2]) it was < 0.1 µM.

Consider `NC(c1cccc(S(=O)(=O)N2CCCC2)c1)(C(F)(F)F)C(F)(F)F` [Example 3, 2,2,2-Trifluoro-1-[3-(pyrrolidine-1-sulfonyl)-phenyl]-1-trifluoromethyl-ethylamine], for which the IC50 on human 11b-HSD1, on mouse 11b-HSD1 (setting [1]) and at mouse 11b-HSD1 (setting [2]) was > 10 µM in each case.

In the case of `COc1ccc(N(C(=O)OC(C)(C)C)S(=O)(=O)c2cccc(C(N)(C(F)(F)F)C(F)(F)F)c2)cc1` [Example 8, 3-(1-Amino-2,2,2-trifluoro-1-trifluoromethyl-ethyl)-N-(tert-butoxycarbonyl)-N-(4-methoxy-phenyl)-benzenesulfonamide], the IC50 on human 11b-HSD1, on mouse 11b-HSD1 (setting [1]) and on mouse 11b-HSD1 (setting [2]) was > 10 µM in each case.
